# Test system: JIMT-1 cells
# Assay: Western blot of mitotic arrest, DNA damage and apoptosis markers
# Format: cell-based, human
# Conditions: 24 hours, dose response
# Procedure: JIMT-1, MDA-MB-436, MDA-MB-157 and BT-474 T-DM1R cell lines were tested with respect to their response to these three drugs. […] Although higher KHS101 doses was included, which were used by others (Campo & Breuer, 2018), an induction of these markers was only observed at very high doses.
row,SMILES,"induction of mitotic arrest, DNA damage and apoptosis markers"
1,"CC(C)CNc1ccnc(NCc2csc(-c3ccccc3)n2)n1 [KHS101, reference compound]",considerably higher doses

# Test system: JIMT-1 cells
# Assay: JIMT-1 cell growth inhibition / cell viability (SRB assay)
# Format: cell-based
# Conditions: Homo sapiens; JIMT-1 cells; read-out: IC50
# Procedure: The ability of the compounds of the present disclosure to treat TACC3-mediated cancers, or associated symptoms or complications thereof, was determined using the following procedures. The compounds of the present disclosure were tested for their activity against cell death induction using a JIMT-1 cell line, which was a cell line having high level of TACC3. The concentration of each compound that was required for half-maximal inhibition of cell proliferation was calculated by a GraphPad Prism (GraphPad Software).
row,SMILES,IC50 [nM]
1,"COc1ccc(-c2cc(Nc3nc(N4CCC(F)CC4)ncc3F)on2)cc1 [Compound 60, N-(5-fluoro-2-(4-fluoropiperidin-1-yl)pyrimidin-4-yl)-3-(4-methoxyphenyl)isoxazol-5-amine]",540
2,"COc1ccc(-c2cc(Nc3cc(C)nc(N4CCC(F)CC4)n3)on2)cc1 [Compound 61, N-(2-(4-fluoropiperidin-1-yl)-6-methylpyrimidin-4-yl)-3-(4-methoxyphenyl)isoxazol-5-amine]",1000
3,"COc1ccc(-c2cc(N(C)c3ccnc(N4CCOCC4)n3)on2)cc1 [Compound 63, 3-(4-methoxyphenyl)-N-methyl-N-(2-morpholinopyrimidin-4-yl)isoxazol-5-amine]",160
4,"CN(C)c1ccc(-c2cc(Nc3ccnc(N4CCC(F)CC4)n3)on2)cc1 [Compound 64, 3-(4-(dimethylamino)phenyl)-N-(2-(4-fluoropiperidin-1-yl)pyrimidin-4-yl)isoxazol-5-amine]",157
5,"COc1ccc(-c2cc(Nc3ccnc(N4CCC(F)CC4)n3)on2)cc1F [Compound 65, 3-(3-fluoro-4-methoxyphenyl)-N-(2-(4-fluoropiperidin-1-yl)pyrimidin-4-yl)isoxazol-5-amine]",145
6,"COc1ccc(-c2cc(Nc3ccnc(N4C5CCC4COC5)n3)on2)cc1F [Compound 66, N-(2-(3-oxa-8-azabicyclo[3.2.1]octan-8-yl)pyrimidin-4-yl)-3-(3-fluoro-4-methoxyphenyl)isoxazol-5-amine]",53
7,"COc1ccc(-c2cc(Nc3ccnc(N4CCCC4)n3)on2)cc1F [Compound 67, 3-(3-fluoro-4-methoxyphenyl)-N-(2-(pyrrolidin-1-yl)pyrimidin-4-yl)isoxazol-5-amine]",49

# Source: patent US20230027854A1, “ISOXAZOLE DERIVATIVES TARGETING TACC3 AS ANTICANCER AGENTS” (A2A Pharmaceuticals, inc., priority 2019, published 2023)
